Measured values published in patent US20260022114A1, “N-(5-SUBSTITUTED-[(1,3,4-THIADIAZOLYL) OR (1,3-THIAZOLYL)](SUBSTITUTED)CARBOXAMIDE COMPOUNDS, PHARMACEUTICAL COMPOSITIONS, AND METHODS OF PREPARING THE AMIDE COMPOUNDS AND OF THEIR USE” (Repare Therapeutics Inc., priority 2022, published 2026).

target: PolQ ATPase enzyme (1-894) (Homo sapiens (Human), UniProt O75417); experiment: Polθ ATPase enzymatic assay (0.5 nM enzyme concentration), ADP-Glo; type: biochemical; conditions: 0.5 nM PolQ ATPase enzyme (1-894); average IC50
Sequence (O75417 1-894): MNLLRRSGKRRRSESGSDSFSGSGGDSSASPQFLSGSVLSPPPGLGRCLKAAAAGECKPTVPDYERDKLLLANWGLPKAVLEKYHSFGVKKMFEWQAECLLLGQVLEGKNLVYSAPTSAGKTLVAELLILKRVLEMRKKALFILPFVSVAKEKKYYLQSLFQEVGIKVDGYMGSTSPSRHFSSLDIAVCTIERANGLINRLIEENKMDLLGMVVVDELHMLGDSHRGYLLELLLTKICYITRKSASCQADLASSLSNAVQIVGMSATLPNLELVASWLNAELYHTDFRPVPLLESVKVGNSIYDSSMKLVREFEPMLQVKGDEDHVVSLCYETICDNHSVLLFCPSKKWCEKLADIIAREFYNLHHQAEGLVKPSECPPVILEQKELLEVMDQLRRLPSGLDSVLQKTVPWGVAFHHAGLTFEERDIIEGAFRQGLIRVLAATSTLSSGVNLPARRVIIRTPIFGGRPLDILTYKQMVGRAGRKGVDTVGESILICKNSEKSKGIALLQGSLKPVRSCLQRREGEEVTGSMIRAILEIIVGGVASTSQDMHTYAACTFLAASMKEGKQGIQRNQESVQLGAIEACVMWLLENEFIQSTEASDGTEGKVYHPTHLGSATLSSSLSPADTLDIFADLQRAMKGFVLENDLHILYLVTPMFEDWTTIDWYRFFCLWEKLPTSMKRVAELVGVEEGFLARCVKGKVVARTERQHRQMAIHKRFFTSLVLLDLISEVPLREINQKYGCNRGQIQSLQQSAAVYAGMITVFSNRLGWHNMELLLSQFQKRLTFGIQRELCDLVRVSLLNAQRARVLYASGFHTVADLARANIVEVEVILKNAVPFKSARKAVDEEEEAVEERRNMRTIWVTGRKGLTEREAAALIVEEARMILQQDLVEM
Procedure: PolQ ATPase enzyme (1-894) at 0.5 nM is incubated with a 10-point concentration response of inhibitors for 15 min at rt in the following buffer: 50 mM Tris Cl pH 7.5, 10% glycerol, 5 mM DTT, 10 mM MgCl2, 0.1 mg/ml BSA. Following pre-incubation with inhibitors, DNA (Fork C) at 20 nM and ATP at 100 μM are added to start the reaction. Enzymatic reaction proceeds at rt for 180 min. ATP consumption is measured using the ADP-Glo assay from Promega. Luminescence is read on the Envision and IC50 are determined using the variable slope 4-parameters equation.
Oligos are annealed by heating at 95° C. for 5 min in the following buffer (10 mM Tris-HCl PH7.5, 50 mM NaCl, 1 mM EDTA) and cooled to rt. […]

Row | IC50 [nM] | Structure (SMILES)
1 | 0.47 | C=C[C@H]1C[C@@H]1c1nnc(NC(=O)c2cnc(-n3ccc(C)cc3=O)cc2-c2cc(C(F)F)ncc2OC)s1 (racemic) [Compound 585]
2 | 29 | COc1cnc(C(F)F)cc1-c1cc(-n2ccc(C)cc2=O)ncc1C(=O)Nc1nnc(C(C)(C)OC)s1 [Compound 576]
3 | < 0.25 | COc1cnc(C(F)F)cc1-c1cc(C2C[C@H]2C(=O)N(C)C)ccc1C(=O)Nc1nnc(C#CC2CC2)s1 (mixture of isomers) [Compound 363]
4 | 0.95 | COc1cnc(C(F)F)cc1-c1cc(-n2ccc(C)cc2=O)ncc1C(=O)Nc1nnc([C@H]2C[C@@H]2C(F)(F)F)s1 [Compound 534]
5 | < 0.25 | COc1cnc(C(F)F)cc1-c1cc(-n2ccc(C(N)=O)cc2=O)ncc1C(=O)Nc1nnc(C#CC2CC2)s1 [Compound 492]
6 | 0.55 | COc1cnc(C(F)F)cc1-c1cc(C#CCCN2CCOCC2)ncc1C(=O)Nc1nnc(C#CC2CC2)s1 [Compound 541]
7 | < 0.25 | C#C[C@H]1C[C@@H]1c1nnc(NC(=O)c2cnc(-n3cc(C)ccc3=O)cc2-c2cc(C(F)F)ncc2OC)s1 [Compound 546]
8 | 0.3 | COc1cnc(C(F)F)cc1-c1cc(C#CCN2CCCC2=O)ncc1C(=O)Nc1nnc([C@H]2C[C@@H]2c2cncs2)s1 (racemic) [Compound 643]
9 | 1.5 | COc1cnc(C(F)F)cc1-c1cc(Oc2cc(N3CCOCC3)ccn2)ncc1C(=O)Nc1nnc(C#CC2CC2)s1 [Compound 526]
10 | 0.81 | COc1cnc(C(F)F)cc1-c1cc(C#CCN2CCCC2=O)ncc1C(=O)Nc1nnc([C@H]2C[C@@H]2C)s1 (racemic) [Compound 618]
11 | < 0.25 | C#C[C@H]1CC1c1nnc(NC(=O)c2cnc(-n3ccc(C)cc3=O)cc2-c2cc(Cl)ncc2OC)s1 (single isomer, unassigned) [Compound 590]
12 | 0.45 | COc1cnc(C(F)F)cc1-c1cc(-n2cccc(C)c2=O)ncc1C(=O)Nc1nnc([C@H]2C[C@@H]2C(F)(F)F)s1 [Compound 552]
13 | 15 | COc1cnc(C(F)F)cc1-c1cc(C#CCn2cccn2)ncc1C(=O)Nc1nnc(C#CC2CC2)s1 [Compound 598]
14 | 0.72 | COc1cnc(C(F)F)cc1-c1cc(-n2ncc(C)cc2=O)ncc1C(=O)Nc1nnc(C2C[C@@H]2C)s1 (single isomer, unassigned) [Compound 642]
15 | < 0.25 | COc1cnc(C(F)F)cc1-c1cc(C#CC2(N)CC2)ncc1C(=O)Nc1nnc(C#CC2CC2)s1 [Compound 554]
16 | 0.79 | COc1cnc(C(F)F)cc1-c1cc(-n2cccc(Cl)c2=O)ncc1C(=O)Nc1nnc([C@H]2C[C@@H]2C)s1 [Compound 608]
17 | 0.93 | COc1cnc(C(F)F)cc1-c1cc(-c2ccc(C)nc2OC)ncc1C(=O)Nc1nnc(C#CC2CC2)s1 [Compound 501]
18 | 0.92 | COc1cnc(C(F)F)cc1-c1cc(N2CCN(C3CC3)C3(CC3)C2=O)ncc1C(=O)Nc1nnc(C#CC2CC2)s1 [Compound 510]
19 | < 0.25 | COc1cnc(C(F)F)cc1-c1cc(C#CCN2CCCC2=O)ncc1C(=O)Nc1nnc(C#CC2CC2)s1 [Compound 550]

Row | IC50 [nM] | Structure (SMILES)
20 | < 0.25 | COc1cnc(C(F)F)cc1-c1cc(-n2ccc(N3CCOCC3)cc2=O)ncc1C(=O)Nc1nnc(C#CC2CC2)s1 [Compound 522]
21 | 1.9 | COc1cnc(C(F)F)cc1-c1cc(C2C[C@@H]2C(=O)N(C)C)ncc1C(=O)Nc1nnc(C#CC2CC2)s1 (mixture of isomers) [Compound 361]
22 | < 0.25 | COC(=O)N1CCN(c2cc(-c3cc(C(F)F)ncc3OC)c(C(=O)Nc3nnc(C#CC4CC4)s3)cn2)C(=O)C12CC2 [Compound 505]
23 | 1.6 | COc1ncc(-c2cc(-c3cc(C(F)F)ncc3OC)c(C(=O)Nc3nnc(C#CC4CC4)s3)cn2)cn1 [Compound 533]
24 | 2.7 | COc1cnc(C(F)F)cc1-c1cc(C#CCn2ccnc2)ncc1C(=O)Nc1nnc(C#CC2CC2)s1 [Compound 601]
25 | 0.27 | COc1cnc(C(F)F)cc1-c1cc(N2CCN(C=O)C3(CC3)C2=O)ncc1C(=O)Nc1nnc(C#CC2CC2)s1 [Compound 520]
26 | < 0.25 | C#C[C@H]1C[C@@H]1c1nnc(NC(=O)c2cnc(-n3cccc(Cl)c3=O)cc2-c2cc(C(F)F)ncc2OC)s1 [Compound 591]
27 | 1.2 | COc1cnc(C(F)F)cc1-c1cc(N2CCN(CC#N)C3(CC3)C2=O)ncc1C(=O)Nc1nnc(C#CC2CC2)s1 [Compound 508]
28 | 30 | COc1cnc(C(F)F)cc1-c1cc(-n2ccc(C)cc2=O)ncc1C(=O)Nc1nnc(C(C)OC)s1 (racemic) [Compound 604]
29 | 0.86 | COc1cnc(C(F)F)cc1-c1cc(C#CCN2CCOCC2)ncc1C(=O)Nc1nnc([C@H]2C[C@@H]2c2cscn2)s1 (racemic) [Compound 634, 2′-(difluoromethyl)-5′-methoxy-6-(3-morpholinoprop-1-yn-1-yl)-N-(5-((1S,2S)-2-(thiazol-4-yl)cyclopropyl)-1,3,4-thiadiazol-2-yl)-[4,4′-bipyridine]-3-carboxamide]
30 | 0.99 | COc1cnc(C(F)F)cc1-c1cc(N(C)c2nnc(C)o2)ccc1C(=O)Nc1nnc(C#CC2CC2)s1 [Compound 118, N-(5-(cyclopropylethynyl)-1,3,4-thiadiazol-2-yl)-2-(2-(difluoromethyl)-5-methoxypyridin-4-yl)-4-(methyl (5-methyl-1,3,4-oxadiazol-2-yl)amino)benzamide]
31 | 0.44 | COc1cnc(C(F)F)cc1-c1cc(C#CC(C)(C)N2CCOCC2)ncc1C(=O)Nc1nnc(C#CC2CC2)s1 [Compound 528]
32 | 2.4 | COc1cnc(C(F)F)cc1-c1cc(N2C[C@@H](C)OCC2=O)ncc1C(=O)Nc1nnc(C#CC2CC2)s1 [Compound 502]
33 | < 0.25 | COc1cnc(C(F)F)cc1-c1cc(-n2ccc(C)cc2=O)ncc1C(=O)Nc1nnc([C@H]2C[C@@H]2C(F)F)s1 [Compound 623]
34 | 0.39 | C#C[C@@H]1CC1c1nnc(NC(=O)c2ccc(N3CCOCC3=O)cc2-c2cc(C(F)F)ncc2OC)s1 (stereo partly drawn) [Compound 177]
35 | < 0.25 | CC#C[C@H]1CC1c1nnc(NC(=O)c2cnc(-n3cccc(F)c3=O)cc2-c2cc(C(F)F)ncc2OC)s1 (mixture of isomers) [Compound 638]
36 | 1 | COc1cnc(C(F)F)cc1-c1cc(C#CC2CCN(C)CC2)ncc1C(=O)Nc1nnc(C#CC2CC2)s1 [Compound 555]
37 | 6.4 | COc1cnc(C(F)F)cc1-c1cc(CC2CCOCC2)ncc1C(=O)Nc1nnc(C#CC2CC2)s1 [Compound 267]
38 | < 0.25 | C#C[C@H]1C[C@@H]1c1nnc(NC(=O)c2cnc(-n3cccc(F)c3=O)cc2-c2cc(C(F)F)ncc2OC)s1 [Compound 562, 2″-(difluoromethyl)-N-(5-((1S,2S)-2-ethynylcyclopropyl)-1,3,4-thiadiazol-2-yl)-3-fluoro-5″-methoxy-2-oxo-2H-[1,2′:4′,4″-terpyridine]-5′-carboxamide]

Row | IC50 [nM] | Structure (SMILES)
39 | > 100 | COc1cnc(C(F)F)cc1-c1nc(-c2nnc(C)o2)ccc1C(=O)Nc1ncc(C#CC2CC2)s1 [Compound 392]
40 | 1.9 | COc1cnc(C(F)F)cc1-c1cc(N2CCN(C)CC2=O)ccc1C(=O)Nc1ncc(C#CC2CC2)s1 [Compound 217]
41 | 0.7 | COc1cnc(C(F)F)cc1-c1cc(C#CCN2CCCCC2)ncc1C(=O)Nc1nnc(C#CC2CC2)s1 [Compound 589]
42 | 1 | C#C[C@H]1C[C@@H]1c1nnc(NC(=O)c2cnc(C#CCN3CCOCC3)cc2-c2cc(C(F)F)ncc2OC)s1 [Compound 573]
43 | 0.42 | COCCC#Cc1cc(-c2cc(C(F)F)ncc2OC)c(C(=O)Nc2nnc([C@H]3C[C@@H]3C)s2)cn1 (racemic) [Compound 625]
44 | 0.44 | COc1cnc(C(F)F)cc1-c1cc(-n2ccc(N(C)C)cc2=O)ncc1C(=O)Nc1nnc(C#CC2CC2)s1 [Compound 537]
45 | < 0.25 | COc1cnc(C(F)F)cc1-c1cc(C2CC(C)CCC2=O)ncc1C(=O)Nc1nnc(C#CC2CC2)s1 (racemic) [Compound 389]
46 | < 0.25 | COc1cnc(C(F)F)cc1-c1cc(N2CCC3CCC3C2=O)ncc1C(=O)Nc1nnc(C#CC2CC2)s1 (racemic) [Compound 443]
47 | < 0.25 | COc1cnc(C(F)F)cc1-c1cc(-n2ccc(C)cc2=O)ncc1C(=O)Nc1nnc(C#CC2CCOCC2)s1 [Compound 487]
48 | 1.3 | COc1cncc(-c2cc(-c3cc(C(F)F)ncc3OC)c(C(=O)Nc3nnc(C#CC4CC4)s3)cn2)c1 [Compound 525]
49 | < 0.25 | COc1cnc(C(F)F)cc1-c1cc(-c2cccn(C)c2=O)ncc1C(=O)Nc1nnc(C#CC2CC2)s1 [Compound 483]
50 | 0.93 | COc1cnc(Cl)cc1-c1cnccc1C(=O)Nc1nnc(C2C[C@H]2c2ccc(C#N)c(C)c2)s1 (stereo partly drawn) [Compound 287]
51 | < 0.25 | COc1cnc(C(F)F)cc1-c1cc(C#CCN2CCCC2=O)ncc1C(=O)Nc1nnc([C@H]2C[C@@H]2c2cscn2)s1 (racemic) [Compound 641]
52 | 1 | COc1cnc(C(F)F)cc1-c1cc(C#CCN2CCN(C)CC2)ncc1C(=O)Nc1nnc(C#CC2CC2)s1 [Compound 540]
53 | < 0.25 | C#C[C@H]1C[C@@H]1c1nnc(NC(=O)c2cnc(-n3ccc(OC4COC4)cc3=O)cc2-c2cc(C(F)F)ncc2OC)s1 [Compound 617]
54 | 2.3 | COc1cnc(C(F)F)cc1-c1cc(-c2ccc(=O)n(C)c2)ncc1C(=O)Nc1nnc(C#CC2CC2)s1 [Compound 524]
55 | 0.96 | COc1cnc(C(F)F)cc1-c1cc(-n2ccc(C3CCN(C)CC3)cc2=O)ncc1C(=O)Nc1nnc(C#CC2CC2)s1 [Compound 536]
56 | 0.73 | COc1cnc(C(F)F)cc1-c1cc(-n2ccc(N3CCN(C)CC3)cc2=O)ncc1C(=O)Nc1nnc(C#CC2CC2)s1 [Compound 535]
57 | 1.4 | COc1cnc(C(F)F)cc1-c1cc(C#CCC(C)(C)O)ncc1C(=O)Nc1nnc([C@H]2C[C@@H]2c2ccn(C)n2)s1 (racemic) [Compound 622]
